According to PubChem BioAssay (NCI):
Where “and” joins values, the source holds several entries; their conditions need not be identical. Identical values can stand only once.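 Method: 48-hour compound exposure of cells in 96-well plates, five concentrations, linear interpolation of endpoints. GI50 = concentration required for 50% inhibition of growth. TGI denotes the concentration required for complete inhibition of growth.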

Key:
Assay in all cases: NCI tumour cell line growth inhibition, 48 h
[1] = test system: 786-0 renal
[2] = test system: DU-145 prostate
[3] = test system: MALME-3M melanoma
[4] = test system: NCI-H226 lung
[5] = test system: OVCAR-4 ovarian
[6] = test system: SF-295 CNS
[7] = test system: SK-OV-3 ovarian
[8] = test system: T-47D breast
[9] = test system: TK-10 renal
[10] = test system: UACC-257 melanoma

Compound | GI50 [1] [µM] | TGI [1] [µM] | GI50 [2] [µM] | TGI [2] [µM] | GI50 [3] [µM] | TGI [3] | GI50 [4] [µM] | TGI [4] [µM] | GI50 [5] [µM] | TGI [5] [µM] | GI50 [6] [µM] | TGI [6] [µM] | GI50 [7] [µM] | TGI [7] [µM] | GI50 [8] [µM] | TGI [8] [µM] | GI50 [9] [µM] | TGI [9] [µM] | GI50 [10] [µM] | TGI [10] [µM]
C=C1C(=O)O[C@H]2[C@H]1CC/C(COC(=O)C(=O)c1cn(C)c3ccc(OC)cc13)=C\CC[C@@]1(C)O[C@@H]21 | 3.84 | 7.56 | 6.67 | 15.5 | 5.62 | 9.91 µM | 5.45 | 10.1 | 5.2 | 25.5 | 9.35 | 21.8 | 13.6 | 29.3 | 5.98 | 11.1 | 4.79 | 13.2 | 4.82 | 9.73
CC(C)c1ccc(O)c(=O)cc1 | 14.7 | > 100 | 9.43 | – | 19.9 | > 72 µM and 66.6 µM | 66.7 | 36.5 | 4.56 | > 100 | 7.57 | > 100 | – | > 100 | 21 | – | 39.7 | > 100 | 15.9 | 31
CC(C)(CCC(C)(C)c1ccccc1)c1ccccc1 | – | 29.5 | – | 38.5 | – | 30 µM | – | 37.6 | – | 39.7 | – | 31.6 | – | 82.6 | – | 36.6 | – | 46.4 | – | 29.2
Oc1ccc(SCc2ccc(NCc3ccccc3)cc2)cc1 | – | 26.8 | – | > 100 | – | > 100 µM | – | > 100 | – | > 100 | – | > 100 | – | > 100 | – | 56.6 | – | > 100 | – | > 100
Nc1c(O)c(S(=O)(=O)O)c(O)c2c1C(=O)c1ccccc1C2=O | 4.73 | 41.3 | 3.8 | > 100 | 2.61 | 8.36 µM | 4.12 | > 100 | 3.06 | 20.8 | 2.32 | 7.27 | 1.98 | 5.36 | 2.36 | 7.37 | 2.91 | 9.73 | 2.38 | 6.33
CC12CCC(O)CC1CCC1C2CCC2(C)C(C3=CC(=O)OC3)CCC12 (stereo unspecified) | 22 | 65.2 | 42.4 | > 100 | 26.3 | > 90.1 µM | > 33.6 | > 100 | – | > 73.2 | 10.7 | 27.4 | 21.8 | > 61.5 | 22.3 | > 100 | 19.6 | 66.4 | > 100 | > 100
CCCCC#Cc1cccc(=O)o1 | > 100 | > 100 | 29.5 | > 100 | 57.4 | > 100 µM | > 100 | > 100 | > 100 | > 100 | > 100 | > 100 | > 100 | > 100 | 29.2 | > 100 | > 100 | > 100 | 30.9 | > 100
COc1ccc2c(c1)C(=O)c1c-2n(CCCCl)c(=O)c2cc(N(C)C)ccc12 | 33.1 | > 100 | > 100 | > 100 | 63.8 | > 100 µM | 54.7 | > 100 | 62.9 | > 100 | > 100 | > 100 | 36.2 | > 100 | 34.6 | > 100 | 30.9 | > 100 | 43 | > 100
C#CC#CC#CC#CC#CC#CC#CC#CCC1OC[C@H](COC(=O)O[C@@H](C(=O)O[C@H]2C[C@@]3(O)[C@@H](OC(=O)c4ccccc4)[C@@H]4[C@]5(OC(C)=O)CO[C@@H]5C[C@H](O)[C@@]4(C)C(=O)[C@H](OC(C)=O)C(=C2C)C3(C)C)[C@@H](NC(=O)c2ccccc2)c2ccccc2)O1 (stereo partly specified) | 8.21 | > 33.3 | 0.228 | > 33.3 | 1.16 | > 33.3 µM | > 33.3 | > 33.3 | > 33.3 | > 33.3 | 1.01 | > 27.5 | 1.38 | > 33.3 | 0.516 | > 33.3 | > 21.5 | > 33.3 | > 8.84 | > 33.3
